Results reported in patent US20180368410A1, “MICROBIOCIDAL OXADIAZOLE DERIVATIVES” (SYNGENTA PARTICIPATIONS AG, priority 2015, published 2018).

How the values were obtained:
[1] = test system: Puccinia recondita f. Sp. Tritici; test: Puccinia recondita f. sp. tritici / wheat / leaf disc preventative (brown rust); type: in vivo, Puccinia recondita f. sp. tritici on wheat cv. Kanzler; settings: foliar, 200 ppm in the applied formulation, inoculated 1 day after application, assessed 7 to 9 days after application, vs untreated control leaf disks, read-out: disease control
Method: Leaf disks or leaf segments of various plant species are cut from plants grown in a greenhouse. The cut leaf disks or segments are placed in multiwell plates (24-well format) onto water agar. The leaf disks are sprayed with a test solution before (preventative) or after (curative) inoculation. Compounds to be tested are prepared as DMSO solutions (max. 10 mg/ml) which are diluted to the appropriate concentration with 0.025% Tween20 just before spraying. The inoculated leaf disks or segments are incubated under defined conditions (temperature, relative humidity, light, etc.) according to the respective test system. A single evaluation of disease level is carried out 3 to 14 days after inoculation, depending on the pathosystem. Percent disease control relative to the untreated check leaf disks or segments is then calculated. Wheat leaf segments cv. Kanzler were placed on agar in multiwell plates (24-well format) and sprayed with the formulated test compound diluted in water. The leaf disks were inoculated with a spore suspension of the fungus 1 day after application. The inoculated leaf segments were incubated at 19′C and 75% relative humidity (rh) under a light regime of 12 hours light/12 hours darkness in a climate cabinet and the activity of a compound was assessed as percent disease control compared to untreated when an appropriate level of disease damage appears in untreated check leaf segments (7 to 9 days after application). The following compounds at 200 ppm in the applied formulation give at least 80% disease control in this test when compared to untreated control leaf disks under the same conditions, which show extensive disease development.

[2] = test system: Puccinia recondita f. Sp. Triticil; test: Puccinia recondita f. sp. tritici / wheat / leaf disc curative (brown rust); type: in vivo, Puccinia recondita f. sp. tritici on wheat cv. Kanzler; settings: foliar, 200 ppm in the applied formulation, applied 1 day after inoculation, assessed 6 to 8 days after application, vs untreated control leaf disks, read-out: disease control
Method: (§1) Leaf disks or leaf segments of various plant species are cut from plants grown in a greenhouse. The cut leaf disks or segments are placed in multiwell plates (24-well format) onto water agar. The leaf disks are sprayed with a test solution before (preventative) or after (curative) inoculation. Compounds to be tested are prepared as DMSO solutions (max. 10 mg/ml) which are diluted to the appropriate concentration with 0.025% Tween20 just before spraying. The inoculated leaf disks or segments are incubated under defined conditions (temperature, relative humidity, light, etc.) according to the respective test system. A single evaluation of disease level is carried out 3 to 14 days after inoculation, depending on the pathosystem. Percent disease control relative to the untreated check leaf disks or segments is then calculated.
Wheat leaf segments cv. Kanzler are placed on agar in multiwell plates (24-well format). The leaf segments are then inoculated with a spore suspension of the fungus. Plates were stored in darkness at 19° C. and 75% relative humidity. The formulated test compound diluted in water was applied 1 day after inoculation. The leaf segments were incubated at 19° C. and 75% relative humidity under a light regime of 12 hours light/12 hours darkness in a climate cabinet and the activity of a compound was assessed as percent disease control compared to untreated when an appropriate level of disease damage appears in untreated check leaf segments (6 to 8 days after application).
(§2) The following compounds at 200 ppm in the applied formulation give at least 80% disease control in this test when compared to untreated control leaf disks under the same conditions, which show extensive disease development.

Phakopsora pachyrhizi = Phakopsora pachyrhizi / soybean / leaf disc preventative (Asian soybean rust); type: in vivo, Phakopsora pachyrhizi on soybean; settings: foliar, 200 ppm in the applied formulation, inoculated one day after application, assessed 12 to 14 days after application, vs untreated control leaf disks, read-out: disease control
Method: as §1
Soybean leaf disks are placed on water agar in multiwell plates (24-well format) and sprayed with the formulated test compound diluted in water. One day after application leaf discs are inoculated by spraying a spore suspension on the lower leaf surface. After an incubation period in a climate cabinet of 24-36 hours in darkness at 20° C. and 75% rh leaf disc are kept at 20° C. with 12 h light/day and 75% rh. The activity of a compound is assessed as percent disease control compared to untreated when an appropriate level of disease damage appears in untreated check leaf disks (12 to 14 days after application).
as §2

[3] = test system: Glomerella Lacenarium (Colletotrichum lacenarium); test: Glomerella lagenarium (Colletotrichum lagenarium) liquid culture / cucumber / preventative (anthracnose); type: cell-based; settings: 20 ppm in the applied formulation, liquid culture in PDB, 24° C., inhibition of growth measured photometrically 3 to 4 days after application, vs untreated control, read-out: disease control
Method: Mycelia fragments or conidia suspensions of a fungus prepared either freshly from liquid cultures of the fungus or from cryogenic storage, are directly mixed into nutrient broth. DMSO solutions of the test compound (max. 10 mg/ml) are diluted with 0.025% Tween20 by a factor of 50 and 10 μl of this solution is pipetted into a microtiter plate (96-well format). The nutrient broth containing the fungal spores/mycelia fragments is then added to give an end concentration of the tested compound. The test plates are incubated in the dark at 24° C. and 96% relative humidity. The inhibition of fungal growth is determined photometrically after 2 to 7 days, depending on the pathosystem, and percent antifungal activity relative to the untreated check is calculated.
Conidia of the fungus from cryogenic storage are directly mixed into nutrient broth (PDB—potato dextrose broth). After placing a (DMSO) solution of test compound into a microtiter plate (96-well format), the nutrient broth containing the fungal spores is added. The test plates are incubated at 24° C. and the inhibition of growth is measured photometrically 3 to 4 days after application.
The following compounds at 20 ppm in the applied formulation give at least 80% disease control in this test when compared to untreated control under the same conditions, which show extensive disease development.

CC1(C)CC1C(=O)NCc1ccc(-c2noc(C(F)(F)F)n2)cc1 (centres unmarked) [Compound 1.28, 2,2-dimethyl-N-[[4-[5-(trifluoromethyl)-1,2,4-oxadiazol-3-yl]phenyl]methyl] cyclopropanecarboxamide]
≥ 80%: pest or weed control at 200 ppm [1] | pest or weed control at 200 ppm [2] | pest or weed control at 200 ppm (Phakopsora pachyrhizi) | inhibition of growth at 20 ppm [3]

O=C(CC1CC1)NCc1ccc(-c2noc(C(F)(F)F)n2)cc1 [Compound 1.53, 2-cyclopropyl-N-[[4-[5-(trifluoromethyl)-1,2,4-oxadiazol-3-yl]phenyl]methyl]acetamide]
≥ 80%: pest or weed control at 200 ppm [1] | pest or weed control at 200 ppm [2] | pest or weed control at 200 ppm (Phakopsora pachyrhizi) | inhibition of growth at 20 ppm [3]

O=C(NCc1ccc(-c2noc(C(F)(F)F)n2)cc1)C1CCCCC1 [Compound 1.10, N-[[4-[5-(trifluoromethyl)-1,2,4-oxadiazol-3-yl]phenyl]methyl] cyclohexanecarboxamide]
≥ 80%: pest or weed control at 200 ppm [1] | pest or weed control at 200 ppm (Phakopsora pachyrhizi) | inhibition of growth at 20 ppm [3]

CC1CC1C(=O)NCc1ccc(-c2noc(C(F)(F)F)n2)c(F)c1 (centres unmarked) [Compound 1.64, N-[[3-fluoro-4-[5-(trifluoromethyl)-1,2,4-oxadiazol-3-yl]phenyl]methyl]-2-methyl-cyclopropanecarboxamide]
≥ 80%: pest or weed control at 200 ppm [1] | pest or weed control at 200 ppm [2] | pest or weed control at 200 ppm (Phakopsora pachyrhizi) | inhibition of growth at 20 ppm [3]

CC1CC1C(=O)NCCc1ccc(-c2noc(C(F)(F)F)n2)cc1 (centres unmarked) [Compound 1.102, 2-methyl-N-[2-[4-[5-(trifluoromethyl)-1,2,4-oxadiazol-3-yl]phenyl]ethyl] cyclopropanecarboxamide]
≥ 80%: pest or weed control at 200 ppm [1] | pest or weed control at 200 ppm [2] | pest or weed control at 200 ppm (Phakopsora pachyrhizi) | inhibition of growth at 20 ppm [3]

O=C(CC1CC1)NCc1ccc(-c2noc(C(F)(F)F)n2)c(F)c1F [Compound 1.73, 2-cyclopropyl-N-[[2,3-difluoro-4-[5-(trifluoromethyl)-1,2,4-oxadiazol-3-yl]phenyl]methyl]acetamide]
≥ 80%: pest or weed control at 200 ppm [1] | pest or weed control at 200 ppm [2] | pest or weed control at 200 ppm (Phakopsora pachyrhizi) | inhibition of growth at 20 ppm [3]

CC1(C(=O)NCc2ccc(-c3noc(C(F)(F)F)n3)cc2)CC1 [Compound 1.25, 1-methyl-N-[[4-[5-(trifluoromethyl)-1,2,4-oxadiazol-3-yl]phenyl]methyl] cyclopropanecarboxamide]
≥ 80%: pest or weed control at 200 ppm [1] | pest or weed control at 200 ppm [2] | pest or weed control at 200 ppm (Phakopsora pachyrhizi) | inhibition of growth at 20 ppm [3]

O=C(NCCc1ccc(-c2noc(C(F)(F)F)n2)cc1)C1CCOC1 (centres unmarked) [Compound 1.100, N-[2-[4-[5-(trifluoromethyl)-1,2,4-oxadiazol-3-yl]phenyl]ethyl] tetrahydrofuran-3-carboxamide]
≥ 80%: pest or weed control at 200 ppm [1] | pest or weed control at 200 ppm [2] | pest or weed control at 200 ppm (Phakopsora pachyrhizi) | inhibition of growth at 20 ppm [3]

CC1(C(=O)NCCc2ccc(-c3noc(C(F)(F)F)n3)cc2)CC1 [Compound 1.103, 1-methyl-N-[2-[4-[5-(trifluoromethyl)-1,2,4-oxadiazol-3-yl]phenyl]ethyl] cyclopropanecarboxamide]
≥ 80%: pest or weed control at 200 ppm [1] | pest or weed control at 200 ppm (Phakopsora pachyrhizi) | inhibition of growth at 20 ppm [3]

CC1(C(=O)NCc2ccc(-c3noc(C(F)(F)F)n3)cc2)COC1 [Compound 1.54, 3-methyl-N-[[4-[5-(trifluoromethyl)-1,2,4-oxadiazol-3-yl]phenyl]methyl] oxetane-3-carboxamide]
≥ 80%: pest or weed control at 200 ppm [1] | pest or weed control at 200 ppm [2] | pest or weed control at 200 ppm (Phakopsora pachyrhizi) | inhibition of growth at 20 ppm [3]

CC1(C(=O)NCc2ccc(-c3noc(C(F)(F)F)n3)c(F)c2F)COC1 [Compound 1.85, N-[[2,3-difluoro-4-[5-(trifluoromethyl)-1,2,4-oxadiazol-3-yl]phenyl]methyl]-3-methyl-oxetane-3-carboxamide]
≥ 80%: pest or weed control at 200 ppm [1] | pest or weed control at 200 ppm [2] | inhibition of growth at 20 ppm [3]

CC1CC1C(=O)NCc1ccc(-c2noc(C(F)(F)F)n2)c(F)c1F (centres unmarked) [Compound 1.77, N-[[2,3-difluoro-4-[5-(trifluoromethyl)-1,2,4-oxadiazol-3-yl]phenyl]methyl]-2-methyl-cyclopropanecarboxamide]
≥ 80%: pest or weed control at 200 ppm [1] | pest or weed control at 200 ppm (Phakopsora pachyrhizi) | inhibition of growth at 20 ppm [3]

O=C(NCc1ccc(-c2noc(C(F)(F)F)n2)cn1)C1CC1(F)F (centres unmarked) [Compound 1.86, 2,2-difluoro-N-[[5-[5-(trifluoromethyl)-1,2,4-oxadiazol-3-yl]-2-pyridyl]methyl] cyclopropanecarboxamide]
≥ 80%: pest or weed control at 200 ppm [1] | pest or weed control at 200 ppm [2] | inhibition of growth at 20 ppm [3]

O=C(NCc1ccc(-c2noc(C(F)(F)F)n2)cn1)C1CC1 [Compound 1.45, N-[[5-[5-(trifluoromethyl)-1,2,4-oxadiazol-3-yl]-2-pyridyl]methyl] cyclopropanecarboxamide]
≥ 80%: pest or weed control at 200 ppm [1] | pest or weed control at 200 ppm [2] | inhibition of growth at 20 ppm [3]

CC1CC1C(=O)NCc1ccc(-c2noc(C(F)(F)F)n2)cn1 (centres unmarked) [Compound 1.89, 2-methyl-N-[[5-[5-(trifluoromethyl)-1,2,4-oxadiazol-3-yl]-2-pyridyl]methyl] cyclopropanecarboxamide]
≥ 80%: pest or weed control at 200 ppm [1] | pest or weed control at 200 ppm [2] | inhibition of growth at 20 ppm [3]

O=C(NCc1ccc(-c2noc(C(F)(F)F)n2)cn1)C1CCCO1 (centres unmarked) [Compound 1.46, N-[[5-[5-(trifluoromethyl)-1,2,4-oxadiazol-3-yl]-2-pyridyl]methyl]tetrahydrofuran-2-carboxamide]
≥ 80%: pest or weed control at 200 ppm [1] | pest or weed control at 200 ppm [2] | inhibition of growth at 20 ppm [3]

O=C(NCc1ccc(-c2noc(C(F)(F)F)n2)cc1Cl)C1CCCO1 (centres unmarked) [Compound 1.50, N-[[2-chloro-4-[5-(trifluoromethyl)-1,2,4-oxadiazol-3-yl]phenyl]methyl]tetrahydrofuran-2-carboxamide]
≥ 80%: pest or weed control at 200 ppm [1] | pest or weed control at 200 ppm [2] | inhibition of growth at 20 ppm [3]
